System: NMDA receptor
Conditions: NMB rat; CPP 2.5 mg total i.v. (1.25 mg/ml x 0.2 ml/min x 10 min) infused before tetanus; ERs hours 7-16 post-tetanus vs control

`O=C(O)C1CN(CCCP(=O)(O)O)CCN1` (stereo not shown) [CPP, 3-(2-Carboxypiperazin-4-yl)-propyl-1-phosphoric acid] was tested, and the “effect of a A+C-fiber tetanus on the A-fiber ERs (NTS evoked responses)” value was “blocked the effect of a A+C-fiber tetanus on the A-fiber ERs”.
